# Experimental data reported in patent US20040038944A1, “Compositions and methods of preventing or reducing the risk or incidence of skeletal injuries in horses” (Merck & Co., Inc., priority 2000, published 2004).
# Legend:
# [1] = system: C-telopeptides (C-Tx); conditions: alendronate injection, horses confined to stall rest for 56 days, versus saline
# Excerpt: (§1) Bone metabolism is monitored using standard techniques, i.e. serum assays to determine levels of markers of bone turnover, bone resorption and bone formation and ultrasound is used to assess changes in bone density.
# (§2) Materials and Methods: Sixteen healthy adult thoroughbred horses (eight mares and eight male castrates) which had previously been running at pasture for at least 4 months are used.
# (§3) The horses are randomly allocated to 4 treatment groups of four horses, each containing two mares and two male castrates. Serum samples are collected and ultrasound measurements are taken on three occasions directly before commencement of stall rest. Assays are conducted on the serum samples to determine pre-confinement levels of C-telopeptides (C-Tx; a collagen breakdown product that is a marker of bone resorption); osteocalcin (a marker of bone turnover) and bone specific alkaline phosphatase (a marker of bone formation). Ultrasound is used to measure the speed of transmission of sound waves through the bone.
# (§4) Stall rest is commenced the day of first treatment. Serum samples are taken twice weekly and ultrasound measurements are taken each 14 days for the 56 days of the study to monitor changes in bone metabolism markers and in bone density relative to pre-confinement values. At the end of the study the horses are returned to the pasture.
# [2] = system: bone specific alkaline phosphatase; conditions: Groups 2-4, i.v., 56 days stall rest; also reduced in placebo
# Excerpt: as §1, §2, §3, §4
smiles,measurement,setting,value
"NCCCC(O)(P(=O)(O)O)P(=O)(O)O [alendronate, 4-amino-1-hydroxybutylidene-1,1-bisphosphonic acid monosodium trihydrate]",bone resorption (result in words),[1],suppressed bone resorption
same,marker for bone formation (bone specific alkaline phosphatase),[2],reduced
